Measured values from the NIST ThermoML archive (doi:10.1021/je100022w).
Numbers after ± are expanded uncertainties.

Conditions: Crystal 2; DSC

## COC(=O)[C@H](c1ccccc1Cl)N1CCc2sccc2C1.O=S(=O)(O)O [(S)-(+)-Clopidogrel hydrogen sulfate]
  Triple point temperature: 449.15 ± 1 K
